Columns and labels:
[1] = tested on: MDA-MB-231 tumors; test: Human breast xenograft, tumor volume
Description: (§1) Female athymic nu/nu mice (Harlan Laboratories Models, S.L. Barcelona, Spain or Envigo, Spain) were utilized for all experiments. Animal were housed in individually ventilated cages Sealsafe® Plus, Techniplast S.P.A.), up to ten per cage on a 12-hour light-dark cycle at 21-23° C. and 40-60% humidity. […] Animals were acclimated for at least 5 days prior to tumor implantation with a tumor cell suspension.
MDA-MB-231 cells were maintained in vitro at 37° C. with 5% CO2 in Dulbecco's Modified Eagle's Medium (Sigma-Aldrich, Co). Culture cells were passaged every 3 to 5 days upon reaching confluence.
(§2) Treatment tolerability was assessed by monitoring body weight evolution, clinical signs of systemic toxicity, as well as evidences of local damage in the injection site.
(§3) In Xenograft Studies with Other Cell Lines: • Tumor volume was calculated using the equation (a·b^2)/2, where a: length (longest diameter) and b: width (shortest diameter) were measured in mm by using digital caliper (Fowler Sylvac, S235PAT).
(§4) Treatments producing >20% lethality and/or 20% net body weight loss were considered toxic.

[2] = tested on: A2780 tumors; test: Human ovarian xenograft, tumor volume
Description: as §1
Culture cells were passaged every 3 to 5 days upon reaching confluence. Each animal was subcutaneously implanted (on the right flank using 26G needle and a 1 cc syringe) at 4-6 weeks of age with 10×10^6 A2780 cells suspended in 0.05 mL of a solution consisting of 50% Matrigel® (Corning Incorporated Life Sciences) and 50% medium without serum or antibiotics.
as §2, §3, §4

[3] = tested on: HGC27 tumors; test: Human gastric xenograft, tumor volume
Description: as §1
HGC27 cells were maintained in vitro at 37° C. with 5% CO2 in Iscove's Modified Dulbecco's Medium (Sigma Aldrich, Co). Culture cells were passage every 3 to 5 days on reaching confluence. Each animal was subcutaneously implanted (on the right flank using 26G needle and a 1 cc syringe) at 4-6 weeks of age with 5×10^6 HGC-27 cells suspended in 0.05 mL of a solution consisting of 50% Matrigel® (Corning Incorporated Life Sciences), 50% medium without serum or antibiotics.
as §2, §3, §4

[4] = tested on: H460 tumors; test: Human lung (NSCLC) xenograft, tumor volume
Description: as §1
H460 cells were maintained in vitro at 37° C. with 5% CO2 in Dulbecco's Modified Eagle's Medium (Sigma-Aldrich, Co). Culture cells were passaged every 3 to 5 days upon reaching confluence. Each animal was subcutaneously implanted (on the right flank using 26G needle and a 1 cc syringe) at 4-6 weeks of age with 5×10^6 H460 cells suspended in 0.05 mL of a solution consisting of 50% Matrigel® (Corning Incorporated Life Sciences) and 50% medium without serum or antibiotics.
as §2, §3, §4
Tables and figures summarize the data obtained from complete experimental groups, i.e. those groups keeping the initial number of animals, n=8-10.

[5] = tested on: HT1080 tumors; test: Human fibrosarcoma xenograft, total diameter (tumor + leg)
Description: as §1
HT1080 cells were maintained in vitro at 37° C. with 5% CO2 in Minimum Essential Medium Eagle (MEME) (Sigma-Aldrich, Co). Each animal was orthotopically implanted into gastroecnemius muscle by an intramuscular injection using a 26G needle and a 1 cc syringe at 4-6 weeks of age, with 10×10^6 HT1080 cells, suspended in serum free medium, without antibiotics.
as §2
In xenograft studies with HT1080 cell line: • Total diameter (tumor+leg) measurements were determined by using digital caliper (Fowler Sylvac, S235PAT).
as §4

[6] = Day 2.0, iv Days 0, 7 and 14, compound C 3.0 mg/kg, 4-S […], 12-S […]
[7] = Day 5.0, iv Days 0, 7 and 14, compound C 3.0 mg/kg, 4-S […], 12-S […]
[8] = Day 7.0, iv Days 0, 7 and 14, compound C 3.0 mg/kg, 4-S […], 12-S […]
[9] = Day 9.0, iv Days 0, 7 and 14, compound C 3.0 mg/kg, 4-S […], 12-S […]
[10] = Day 12.0, iv Days 0, 7 and 14, compound C 3.0 mg/kg, 4-S […], 12-S […]
[11] = Day 14.0, iv Days 0, 7 and 14, compound C 3.0 mg/kg, 4-S […], 12-S […]
[12] = Day 16.0, iv Days 0, 7 and 14, compound C 3.0 mg/kg, 4-S […], 12-S […]
[13] = Day 19.0, iv Days 0, 7 and 14, compound C 3.0 mg/kg, 4-S […], 12-S […]
[14] = Day 21.0, iv Days 0, 7 and 14, compound C 3.0 mg/kg, 4-S […], 12-S […]
[15] = Day 23.0, iv Days 0, 7 and 14, compound C 3.0 mg/kg, 4-S […], 12-S […]

COc1c(C)cc2c(c1O)[C@@H]1[C@@H]3[C@@H]4SC[C@]5(N[C@H](CN)Cc6c5[nH]c5ccccc65)C(=O)OC[C@@H](c5c6c(c(C)c(OC(C)=O)c54)OCO6)N3[C@@H](O)[C@H](C2)N1C [Compound 12-S]
Median Tumor Volume [1, 6]: 229.9 mm^3
Median Tumor Volume [1, 7]: 290.5 mm^3
Median Tumor Volume [1, 8]: 398.2 mm^3
Median Tumor Volume [1, 9]: 508.9 mm^3
Median Tumor Volume [1, 10]: 602.5 mm^3
Median Tumor Volume [1, 11]: 751.0 mm^3
Median Tumor Volume [1, 12]: 977.7 mm^3
Median Tumor Volume [1, 13]: 1252.6 mm^3
Median Tumor Volume [1, 14]: 1560.7 mm^3
Median Tumor Volume [1, 15]: 2005.9 mm^3
Median Tumor Volume ([1]; Day 26.0, iv Days 0, 7 and 14, compound C 3.0 mg/kg, 4-S […], 12-S […]): 2066.2 mm^3
Median Tumor Volume [2, 6]: 262.1 mm^3
Median Tumor Volume [2, 7]: 628.6 mm^3
Median Tumor Volume [2, 8]: 976.3 mm^3
Median Tumor Volume [2, 9]: 1387.5 mm^3
Median Tumor Volume [2, 10]: 1666.0 mm^3
Median Tumor Volume [3, 6]: 411.9 mm^3
Median Tumor Volume [3, 7]: 834.1 mm^3
Median Tumor Volume [3, 8]: 1176.6 mm^3
Median Tumor Volume [3, 9]: 1531.6 mm^3
Median Tumor Volume [3, 10]: 2030.2 mm^3
Median Tumor Volume [4, 6]: 460.5 mm^3
Median Tumor Volume [4, 7]: 922.4 mm^3
Median Tumor Volume [4, 8]: 1252.1 mm^3
Median Tumor Volume [4, 9]: 1409.4 mm^3
Median Tumor Volume [4, 10]: 1531.7 mm^3
Total diameter (tumor + leg) [5, 6]: 8.2 mm
Total diameter (tumor + leg) [5, 7]: 8.6 mm
Total diameter (tumor + leg) [5, 8]: 9.5 mm
Total diameter (tumor + leg) [5, 9]: 10.0 mm
Total diameter (tumor + leg) [5, 10]: 11.2 mm
Total diameter (tumor + leg) [5, 11]: 11.7 mm
Total diameter (tumor + leg) [5, 12]: 12.7 mm
Total diameter (tumor + leg) [5, 13]: 13.5 mm
Total diameter (tumor + leg) [5, 14]: 14.4 mm
Total diameter (tumor + leg) [5, 15]: 16.5 mm

COc1c(C)cc2c(c1O)[C@@H]1[C@@H]3[C@@H]4SC[C@]5(N[C@H](CO)Cc6c5oc5ccccc65)C(=O)OC[C@@H](c5c6c(c(C)c(OC(C)=O)c54)OCO6)N3[C@@H](O)[C@H](C2)N1C [Compound 39-S]
Median Tumor Volume ([1]; Day 2): 209.3 mm^3
Median Tumor Volume ([1]; Day 5): 290.9 mm^3
Median Tumor Volume ([1]; Day 7): 301.8 mm^3
Median Tumor Volume ([1]; Day 9): 300.8 mm^3
Median Tumor Volume ([1]; Day 12): 278.7 mm^3
Median Tumor Volume ([1]; Day 14): 249.7 mm^3
Median Tumor Volume ([1]; Day 16): 243.6 mm^3
Median Tumor Volume ([1]; Day 19): 248.3 mm^3
Median Tumor Volume ([1]; Day 21): 250.0 mm^3
Median Tumor Volume ([1]; Day 23): 260.3 mm^3
Median Tumor Volume ([1]; Day 26): 304.9 mm^3
Median Tumor Volume ([1]; Day 28): 337.1 mm^3
Median Tumor Volume ([1]; Day 30): 451.3 mm^3
Median Tumor Volume ([1]; Day 33): 584.1 mm^3
Median Tumor Volume ([1]; Day 35): 683.4 mm^3
Median Tumor Volume ([1]; Day 37): 784.7 mm^3
Median Tumor Volume ([1]; Day 40): 937.4 mm^3
Median Tumor Volume ([1]; Day 42): 1060.5 mm^3
Median Tumor Volume ([1]; Day 44): 1170.5 mm^3
Median Tumor Volume ([1]; Day 47): 1112.9 mm^3
Median Tumor Volume ([1]; Day 49): 1138.6 mm^3
Median Tumor Volume ([1]; Day 51): 1283.2 mm^3
Median Tumor Volume ([1]; Day 54): 1415.1 mm^3
Median Tumor Volume ([1]; Day 56): 1518.7 mm^3
Median Tumor Volume ([1]; Day 58): 1728.5 mm^3
Median Tumor Volume ([1]; Day 61): 2017.9 mm^3
Median Tumor Volume ([2]; Day 2): 206.5 mm^3
Median Tumor Volume ([2]; Day 5): 163.4 mm^3
Median Tumor Volume ([2]; Day 7): 298.6 mm^3
Median Tumor Volume ([2]; Day 9): 317.4 mm^3
Median Tumor Volume ([2]; Day 12): 378.2 mm^3
Median Tumor Volume ([2]; Day 14): 668.5 mm^3
Median Tumor Volume ([2]; Day 16): 853.5 mm^3
Median Tumor Volume ([2]; Day 19): 1415.5 mm^3
Median Tumor Volume ([2]; Day 21): 1519.2 mm^3
Median Tumor Volume ([2]; Day 23): 1666.0 mm^3
Median Tumor Volume ([2]; Day 30): 2025.0 mm^3
Median Tumor Volume ([3]; Day 2): 356.3 mm^3
Median Tumor Volume ([3]; Day 5): 469.7 mm^3
Median Tumor Volume ([3]; Day 7): 467.8 mm^3
Median Tumor Volume ([3]; Day 9): 575.2 mm^3
Median Tumor Volume ([3]; Day 12): 611.1 mm^3
Median Tumor Volume ([3]; Day 14): 637.3 mm^3
Median Tumor Volume ([3]; Day 16): 690.4 mm^3
Median Tumor Volume ([3]; Day 19): 701.8 mm^3
Median Tumor Volume ([3]; Day 21): 697.4 mm^3
Median Tumor Volume ([3]; Day 23): 715.5 mm^3
Median Tumor Volume ([3]; Day 26): 898.1 mm^3
Median Tumor Volume ([3]; Day 28): 1163.4 mm^3
Median Tumor Volume ([3]; Day 30): 1409.3 mm^3
Median Tumor Volume ([3]; Day 33): 1450.5 mm^3
Median Tumor Volume ([3]; Day 35): 1708.5 mm^3
Median Tumor Volume ([3]; Day 37): 1804.4 mm^3
Median Tumor Volume ([3]; Day 40): 2075.2 mm^3
Median Tumor Volume ([4]; Day 2): 314.4 mm^3
Median Tumor Volume ([4]; Day 5): 584.1 mm^3
Median Tumor Volume ([4]; Day 7): 831.2 mm^3
Median Tumor Volume ([4]; Day 9): 841.0 mm^3
Median Tumor Volume ([4]; Day 12): 1008.0 mm^3
Median Tumor Volume ([4]; Day 14): 1309.8 mm^3
Median Tumor Volume ([4]; Day 16): 1470.0 mm^3
Median Tumor Volume ([4]; Day 19): 2025.0 mm^3
Total diameter (tumor + leg) ([5]; Day 2): 7.9 mm
Total diameter (tumor + leg) ([5]; Day 5): 6.4 mm
Total diameter (tumor + leg) ([5]; Day 7): 6.8 mm
Total diameter (tumor + leg) ([5]; Day 9): 6.9 mm
Total diameter (tumor + leg) ([5]; Day 12): 6.6 mm
Total diameter (tumor + leg) ([5]; Day 14): 6.4 mm
Total diameter (tumor + leg) ([5]; Day 16): 6.8 mm
Total diameter (tumor + leg) ([5]; Day 19): 7.0 mm
Total diameter (tumor + leg) ([5]; Day 21): 7.0 mm
Total diameter (tumor + leg) ([5]; Day 23): 8.5 mm
Total diameter (tumor + leg) ([5]; Day 27): 10.8 mm
Total diameter (tumor + leg) ([5]; Day 33): 14.3 mm
Total diameter (tumor + leg) ([5]; Day 35): 15.3 mm
Total diameter (tumor + leg) ([5]; Day 37): 18.0 mm

COc1c(C)cc2c(c1O)[C@@H]1[C@@H]3[C@@H]4SC[C@]5(N[C@@H](CN)Cc6c5oc5ccccc65)C(=O)OC[C@@H](c5c6c(c(C)c(OC(C)=O)c54)OCO6)N3[C@@H](O)[C@H](C2)N1C [Compound 47-R]
Median Tumor Volume ([1]; Day 2): 225.3 mm^3
Median Tumor Volume ([1]; Day 5): 323.2 mm^3
Median Tumor Volume ([1]; Day 7): 405.0 mm^3
Median Tumor Volume ([1]; Day 9): 495.9 mm^3
Median Tumor Volume ([1]; Day 12): 594.1 mm^3
Median Tumor Volume ([1]; Day 14): 769.5 mm^3
Median Tumor Volume ([1]; Day 16): 1009.5 mm^3
Median Tumor Volume ([1]; Day 19): 1298.0 mm^3
Median Tumor Volume ([1]; Day 21): 1580.7 mm^3
Median Tumor Volume ([1]; Day 23): 2006.5 mm^3
Median Tumor Volume ([1]; Day 26): 2032.1 mm^3
Median Tumor Volume ([2]; Day 2): 280.6 mm^3
Median Tumor Volume ([2]; Day 5): 653.9 mm^3
Median Tumor Volume ([2]; Day 7): 848.7 mm^3
Median Tumor Volume ([2]; Day 9): 1569.1 mm^3
Median Tumor Volume ([2]; Day 12): 1764.0 mm^3
Median Tumor Volume ([2]; Day 14): 1666.0 mm^3
Median Tumor Volume ([2]; Day 16): 2025.0 mm^3
Median Tumor Volume ([3]; Day 2): 359.4 mm^3
Median Tumor Volume ([3]; Day 5): 774.8 mm^3
Median Tumor Volume ([3]; Day 7): 1155.4 mm^3
Median Tumor Volume ([3]; Day 9): 1474.7 mm^3
Median Tumor Volume ([3]; Day 12): 1870.2 mm^3
Median Tumor Volume ([3]; Day 14): 2031.3 mm^3
Median Tumor Volume ([3]; Day 16): 2075.2 mm^3
Median Tumor Volume ([4]; Day 2): 508.1 mm^3
Median Tumor Volume ([4]; Day 5): 979.3 mm^3
Median Tumor Volume ([4]; Day 7): 1280.0 mm^3
Median Tumor Volume ([4]; Day 9): 1543.1 mm^3
Median Tumor Volume ([4]; Day 12): 1764.0 mm^3
Median Tumor Volume ([4]; Day 14): 1845.5 mm^3
Total diameter (tumor + leg) ([5]; Day 2): 8.9 mm
Total diameter (tumor + leg) ([5]; Day 5): 10.1 mm
Total diameter (tumor + leg) ([5]; Day 7): 10.5 mm
Total diameter (tumor + leg) ([5]; Day 9): 11.5 mm
Total diameter (tumor + leg) ([5]; Day 12): 13.5 mm
Total diameter (tumor + leg) ([5]; Day 14): 13.9 mm
Total diameter (tumor + leg) ([5]; Day 16): 14.6 mm
Total diameter (tumor + leg) ([5]; Day 19): 18.0 mm

From patent US12384800B2, “Antitumoral compounds” (priority 2017, dated 2025)
